“And” between values parts separate entries of the source, which are not always exact repeats. Identical values can stand only once. “Also recorded” adds a separate entry of the source.
Tests used:
Format in all cases: physicochemical
[1] = Absorbance spectra of the dyes in DCM (UV-Visible/NIR spectrophotometer); conditions: dichloromethane; for absorption (DCM) λmax: in example paragraphs the longest-wavelength absorbance peak; for absorption (DCM) ε: at absorption λmax
Excerpt: (§1) The absorbance spectra in FIG. 2 and FIG. 5 were obtained in DCM on a JASCO V-770 UV-Visible/[…] spectrophotometer with a 2000 nm/min or 4000 nm/min scan rate. Plotted are the baseline corrected and normalized data. The emission spectra in FIG. 2 were taken in DCM on either a Horiba Instruments PTI QuantaMaster Series fluorometer (6), a Fluoromax-3 spectrofluorometer (1, 3-5), or home-built InGaAs array detector (Princeton Instruments). For 6 the following parameters were used: ex. 610 nm, emission collected from 620-900 nm, slits 5 nm, step size 1 nm, integration time 1 s. Plotted is the DCM corrected, baseline corrected, normalized data. For 1, and 3-5, the following parameters were used: slits 5 nm, step size 1 nm, integration time, 0.25 s. Excitation values and emission collection were as follows: 1 (ex. 460, collection 470-800 nm), 5 (ex. 675 nm, collection 685-950 nm), 4 (ex. 840 nm, emission 850-1100 nm), 3 (ex. 730 nm, emission 950-1400). Plotted are the baseline corrected, normalized data. The emission spectra in FIG. 5 were taken in dichloromethane on a Horiba Instruments QuantaMaster Series fluorometer with excitation slits: 15 nm, emission slits: 30 nm, step size: 1 nm, integration time: 0.1 s and excitation wavelengths as indicated.

[2] = Emission spectra of the dyes in DCM; conditions: dichloromethane; for Emission (CH2Cl2): Example 4 dyes, excitation 806-900 nm per dye; for emission (DCM) λmax: dyes 1, 3-6 and reference dyes
Excerpt: as §1

[3] = Absolute fluorescence quantum yield using an integrating sphere; conditions: for QE, εΦF (quantum efficiency) / ΦF (fluorescence quantum yield): dichloromethane; for ΦF (fluorescence quantum yield): absolute value
Protocol: Polymethine dyes disclosed herein are characterized with respect to their photophysics including absorption, emission, extinction coefficient, quantum yields, and fluorescence lifetime. All quantum yields values obtained are absolute quantum yields values measured using an integrating sphere. Photostabilities are evaluated by sample irradiation with high powered LEDs. Additionally, solvatochromism, solvent compatibility, and stability are assessed.

[4] = Photobleaching under continuous-wave irradiation at 532 nm; conditions: for relative rate, krel (photobleaching): 532 nm irradiation; for relative rate, krel (photobleaching) / photostability (in words) / raw rate, k (photobleaching) / ε at 532 nm: dichloromethane; for raw rate, k (photobleaching): continuous-wave irradiation 532 nm, 0.53 fluence
Protocol: Photostabilities of the Flay series were measured under continuous-wave irradiation (532 nm, 0.53 fluence).

| SMILES | absorption (DCM) λmax [1] [nm] | Emission (CH2Cl2) [2] [nm] | absorption (DCM) ε [1] | emission (DCM) λmax [2] [nm] | other results |
| --- | --- | --- | --- | --- | --- |
| ClC1=C(/C=C/c2cc(-c3ccccc3)[o+]c3cc(N(c4ccccc4)c4ccccc4)ccc23)CCC/C1=C\C=C1/C=C(c2ccccc2)Oc2cc(N(c3ccccc3)c3ccccc3)ccc21.F[B-](F)(F)F [4-((E)-2-((E)-2-chloro-3-(2-((E)-7-(diphenylamino)-2-phenyl-4H-chromen-4-ylidene)ethylidene)cyclohex-1-en-1-yl)vinyl)-7-(diphenylamino)-2-phenylchromenylium tetrafluoroborate] | 1047 | 1079 | – | – | – |
| ClC1=C(/C=C/c2cc(-c3ccccc3)[o+]c3ccc4ccccc4c23)CCC/C1=C\C=C1/C=C(c2ccccc2)Oc2ccc3ccccc3c21.F[B-](F)(F)F [1-((E)-2-((E)-2-chloro-3-((E)-2-(3-phenyl-1H-benzo[f]chromen-1-ylidene)ethylidene)cyclohex-1-en-1-yl)vinyl)-3-phenylbenzo[f]chromen-4-ium tetrafluoroborate] | 1014 | 1055 | – | – | – |
| Cc1cc(-c2ccccc2)[o+]c2cc(N(C)C)ccc12 [Dye 1, 7-N,N-dimethylamino-4-methyl-flavylium perchlorate] | 510 | – | 17000 M⁻¹ cm⁻¹ | 587 | – |
| CN(C)c1ccc2c(c1)OC(c1ccccc1)=C/C2=C\C=C\c1cc(-c2ccccc2)[o+]c2cc(N(C)C)ccc12.[O-][Cl+3]([O-])([O-])[O-] [Dye 5, 7-(dimethylamino)-4-((E)-3-((E)-7-(dimethylamino)-2-phenyl-4H-chromen-4-ylidene)prop-1-en-1-yl)-2-phenylchromenylium perchlorate] | 746 | – | – | 766 | absorption (DCM) ε ([1]; listed as Flav3): ~220,000 M^−1cm^−1; absorption (DCM) λmax ([1]; listed as Flav3): ~745 nm; QE, εΦF (quantum efficiency) [3]: 6600 M⁻¹ cm⁻¹; ΦF (fluorescence quantum yield) [3]: 2.9±0.5% and 2.9%; relative rate, krel (photobleaching) [4]: 1.00 ± .06; photostability relative to HITCI ([4]; 532 nm laser): 4 fold; photostability (in words) ([4]; 532 nm laser, listed as Flav3): extremely high photostabilities; also recorded: excellent photostabilities; raw rate, k (photobleaching) [4]: 1.00 ± 0.06 s^−1 × 10^−3; ε at 532 nm [4]: 2.0 ± 0.1 M^−1cm^−1 × 10^4 |
| ClC1=C(/C=C/c2cc(-c3ccccc3)[o+]c3c4c5c(cc23)CCCN5CCC4)CCC/C1=C\C=C1/C=C(c2ccccc2)Oc2c1cc1c3c2CCCN3CCC1.F[B-](F)(F)F [9-((E)-2-((E)-2-chloro-3-((E)-2-(11-phenyl-2,3,6,7-tetrahydro-1H,5H,9H-pyrano[2,3-f]pyrido[3,2,1-ij]quinolin-9-ylidene)ethylidene)cyclohex-1-en-1-yl)vinyl)-11-phenyl-2,3,6,7-tetrahydro-1H,5H-pyrano[2,3-f]pyrido[3,2,1-ij]quinolin-12-ium tetrafluoroborate] | 1061 | 1089 | 2.38±0.07×10^5 M^−1cm^−1 | – | – |
| CN1C(=CC=CC=CC=CC2=[N+](C)c3ccccc3C2(C)C)C(C)(C)c2ccccc21.[I-] [HITCI, 1,1′,3,3,3′,3′-hexamethylindotricarbocyanine iodide, reference compound] | – | – | – | – | ΦF relative to Flav3 [3]: ~10 fold |
| CN(C)c1ccc2c(c1)OC(c1ccccc1)=C\C2=C/C=C/C=C/c1cc(-c2ccccc2)[o+]c2cc(N(C)C)ccc12.[O-][Cl+3]([O-])([O-])[O-] [Dye 4] | 862 | – | – | 908 | Stoke's shift [2]: 46 nm; QE, εΦF (quantum efficiency) [3]: 10000 M⁻¹ cm⁻¹; QE, εΦF (quantum efficiency) ([3]; listed as Flav5): 10^3 M^−1cm^−1; relative rate, krel (photobleaching) [4]: 4.0 ± 0.2; photostability (in words) ([4]; 532 nm laser, listed as Flav5): extremely high photostabilities; also recorded: excellent photostabilities; raw rate, k (photobleaching) [4]: 2.6 ± 0.2 s^−1 × 10^−3; ε at 532 nm [4]: 1.29 ± 0.08 M^−1cm^−1 × 10^4 |
| ClC1=C(/C=C/c2cc(-c3ccccc3)[o+]c3c2ccc2ccccc23)CCC/C1=C\C=C1/C=C(c2ccccc2)Oc2c1ccc1ccccc21.F[B-](F)(F)F [4-((E)-2-((E)-2-chloro-3-((E)-2-(2-phenyl-4H-benzochromen-4-ylidene)ethylidene)cyclohex-1-en-1-yl)vinyl)-2-phenylbenzo chromen-1-ium tetrafluoroborate] | 998 | 1024 | – | – | – |
| CN(C)c1ccc2c(c1)OC(c1ccccc1)=C/C2=C\C=C1/CCCC(/C=C/c2cc(-c3ccccc3)[o+]c3cc(N(C)C)ccc23)=C1Cl.F[B-](F)(F)F [4-((E)-2-((E)-2-chloro-3-(2-((E)-7-(dimethylamino)-2-phenyl-4H-chromen-4-ylidene)ethylidene)cyclohex-1-en-1-yl)vinyl)-7-(dimethylamino)-2-phenylchromenylium tetrafluoroborate] | 1026 | 1054 | – | – | – |
| C1=C(c2ccccc2)Oc2c(cc3c4c2CCCN4CCC3)/C1=C/C=C/C=C/c1cc(-c2ccccc2)[o+]c2c3c4c(cc12)CCCN4CCC3.F[B-](F)(F)F [11-phenyl-9-((1E,3E,5E)-5-(11-phenyl-2,3,6,7-tetrahydro-1H,5H,9H-pyrano[2,3-f]pyrido[3,2,1-ij]quinolin-9-ylidene)penta-1,3-dien-1-yl)-2,3,6,7-tetrahydro-1H,5H-pyrano[2,3-f]pyrido[3,2,1-ij]quinolin-12-ium tetrafluoroborate] | 897 | 934 | 2.5±0.1×10^5 M^−1cm^−1 | – | – |
| CCN(CC)c1ccc2c(c1)OC(c1ccccc1)=C/C2=C\C=C1/CCCC(/C=C/c2cc(-c3ccccc3)[o+]c3cc(N(CC)CC)ccc23)=C1Cl.F[B-](F)(F)F [4-((E)-2-((E)-2-chloro-3-(2-((E)-7-(diethylamino)-2-phenyl-4H-chromen-4-ylidene)ethylidene)cyclohex-1-en-1-yl)vinyl)-7-(diethylamino)-2-phenylchromenylium tetrafluoroborate] | 1034 | 1062 | 1.8±0.2×10^5 M^−1cm^−1 | – | – |
| ClC1=C(/C=C/c2cc(-c3ccccc3)[o+]c3cc(N4CCC4)ccc23)CCC/C1=C\C=C1/C=C(c2ccccc2)Oc2cc(N3CCC3)ccc21.F[B-](F)(F)F [7-(azetidin-1-yl)-4-((E)-2-((E)-3-(2-((E)-7-(azetidin-1-yl)-2-phenyl-4H-chromen-4-ylidene)ethylidene)-2-chlorocyclohex-1-en-1-yl)vinyl)-2-phenylchromenylium tetrafluoroborate] | 1029 | 1059 | 2.07±0.01×10^5 M^−1cm^−1 | – | – |
| CN(C)c1ccc2c(c1)OC(c1ccccc1)=C/C2=C\c1cc(-c2ccccc2)[o+]c2cc(N(C)C)ccc12.O=C([O-])C(F)(F)F [Dye 6, (E)-7-(dimethylamino)-4-((7-(dimethylamino)-2-phenyl-4H-chromen-4-ylidene)methyl)-2-phenylchromenylium 2,2,2-trifluoroacetate] | 650 | – | – | 684 | QE, εΦF (quantum efficiency) [3]: 100 M⁻¹ cm⁻¹; ΦF (fluorescence quantum yield) ([3]; 2,2,2-trifluoroacetate): 0.7±0.5% and 0.7%; relative rate, krel (photobleaching) [4]: 4 ± 1; photostability (in words) ([4]; 532 nm laser, listed as Flav1, 2,2,2-trifluoroacetate): extremely high photostabilities; also recorded: excellent photostabilities; raw rate, k (photobleaching) [4]: 0.43 ± 0.01 s^−1 × 10^−3; ε at 532 nm [4]: 0.23 ± 0.08 M^−1cm^−1 × 10^4 |
| ClC1=C(/C=C/c2cc(-c3ccccc3)[s+]c(-c3ccccc3)c2)CCC/C1=C/C=C1C=C(c2ccccc2)SC(c2ccccc2)=C1.F[B-](F)(F)F [IR-1061, reference compound] | – | – | – | 1081 | ΦF (fluorescence quantum yield) [3]: 0.32±0.04% |
